Experimental data as given in patent US20220241223A1, “USE OF DISULFIRAM OR ITS DERIVATIVES FOR THE TREATMENT OF MITOCHONDRIAL DISEASES OR DYSFUNCTION” (Universite D'angers, priority 2019, published 2022).

What was measured:
[1] = system: normal cells or intact mitochondria; conditions: very high concentrations (above 25 μM); Gill, Mali, Kuroda, Hassinen; cited from earlier work
TNFα-induced cell death = conditions: Zhao et al. 2000; cited from earlier work
[2] = system: neuronal MELAS cybrid cells; assay: Lactate production in MELAS cybrid cells; type: cell-based, human; conditions: FIG. 8, MELAS cybrids
Description: FIG. 8: Determination of the maximal DSF concentration nontoxic for lactate production in neuronal MELAS cybrid cells. Range of DSF concentrations from 100 nM to 10 μM.
Lactate concentrations in the culture media were determined by spectrophotometry on a Hitachi-Roche apparatus following the recommendations of the manufacturer (Roche Diagnosis, Bale, Switzerland). Increased lactate concentration in supernatant of cell culture is witnessing glycolytic adaptation at the expense of mitochondrial function with reduced oxidative mitochondrial metabolism correlated with high concentrations and drug toxicity of DSF.

[3] = system: mitochondrial complex I in MELAS neuronal cybrid cells; assay: Complex I enzyme activity in MELAS cybrid cells; type: cell-based, human; conditions: FIG. 5; various concentrations, especially from 30 to 90 nM; 48 h exposure; low glucose medium (0.5 g/l)
Description: FIG. 5: Effect of DSF compared to untreated mutant cells (DMSO vehicle) after 48 h exposure on complex I enzyme activity in MELAS neuronal cybrid cells in low glucose medium (0.5 g/l).
The SH-SY5Y neuronal mutant cybrid cells, carrying the m.3243A>G with 98.6% mutant load responsible for MELAS syndrome, were cultured in standard DMEM high glucose media (4.5 g/L) or in low glucose (0.5 g/L), supplemented with 10% fetal bovine serum, 1% glutamine and 50 μg/ml uridine at 37° C. in presence of 5% CO2 as described elsewhere (Desquiret-Dumas et al. & Geffroy et al.). To optimize drug concentrations, cells were shifted to low glucose-medium 0.5 g/l (to force the cells to rely on OXPHOS rather than glycolysis) supplemented with various concentrations of DSF or of the vehicle (DMSO).
Complex I enzyme activity was measured at 37° C. on an UVmc2 spectrophotometer (SAFAS) as described (Desquiret-Dumas et al., 2012). For complex I enzyme activity, 0.5 million of cells were sonicated (6 cycles of 5 seconds) then incubated at 37° C. in the reaction medium (KH2PO4 100 mM, pH 7.4, KCN 1 mM, NaN3 2 mM, BSA 1 mg/ml, ubiquinone-1 0.1 mM and DCPIP 0.075 mM). The reaction was started by adding 0.15 mM NADH and the disappearing rate of DCPIP was measured at 600 nm for 2 minutes. The unspecific activity was determined in the presence of rotenone (5 μM).

[4] = in e.g. alcohol or chloroform; cited from earlier work
control cybrids (JCP213) = assay: Control cybrid growth in glucose-deprived medium; type: cell-based, human; conditions: same range of concentration
Description: The cybrid cell lines JCP213 (WT control) and JCP239 (NARP T8993G, Manfredi G et al.) were grown in high glucose (4.5 g/L final concentration) DMEM (supplemented with fetal bovine serum—FBS—at 5% final concentration, sodium pyruvate at 1 mM final concentration, L-glutamine at 4 mM final concentration and uridine at 200 μM final concentration) and then shifted in the same DMEM-based medium except that it is deprived of glucose to encourage the cells to rely on OXPHOS (OXidative PHOSphorylation) rather than glycolysis, supplemented with: • various concentrations of DSF; or • as control, with equivalent quantity of DMSO (compound vehicle, negative control); or • with 150 μM dihydrolipoic acid (DHLA, positive control, as in previous studies (Couplan E et al. & Aiyar R S et al.). All the cells were grown at 37° C. in presence of 5% CO2.

Δcoa6 cells = assay: Growth in liquid non-fermentable medium with increasing DSF concentrations; type: cell-based; conditions: Saccharomyces cerevisiae, 40 h, read-out: toxic dose (IC50)
Description: Exponentially growing cells were inoculated in fresh non-fermentable YPG or YPE media supplemented, or not, with increasing DSF concentrations.
More precisely, the shy1-G137R and Δcoa6 cells have been grown for 40 h in liquid medium containing 2% glycerol and 0.1% galactose as carbon source and increasing concentrations of DSF (100 nM to 6 μM). The A29G and fmc1Δ cells have been grown for 48 h in liquid medium containing 2% glycerol as carbon source and increasing concentrations of DSF (50 nM to 5 μM). The taz1Δ and sym1Δ cells have been grown for 48 h in rich liquid medium containing 2% ethanol/0.2% galactose and 2% glycerol/2% ethanol as a carbon source, respectively, and increasing concentrations of DSF (100 nM to 9 μM).

[5] = system: A29G, shy1 and coa6 yeast mutant strains; assay: Yeast respiration, O2 consumption rate (Hansatech electrode); type: cell-based, Saccharomyces cerevisiae; conditions: FIG. 2; 200 nM for A29G, 300 nM for shy1 and coa6 mutants; with or without CCCP
Source text: FIG. 2: Effect of DSF on O2 consumption rate (VO2, nmol O2 10^7 cell/min) of various yeast mutant strains, with or without CCCP. The data are the means±SEM of at least three independent experiments. The significance of variations among samples and controls was estimated using Anova multifactorial test: Tukey; (* P value<0.05; ** P<0.01; *** P<0.001; **** P<0.0001)).
The respiratory intensity corresponds to the amount of oxygen consumed relative to time and to the quantity of cells. It reflects the oxidative metabolism of cells. Oxygen consumption was measured using a Hansatech electrode. Cells were grown for 7-8 generations at 28° C. for 24 or 48 h in YPE medium (1% Yeast Extract, 0.5% Bacto Peptone, 2% ethanol) or galactose medium (1% Yeast Extract, 0.5% Bacto Peptone, 2% galactose) supplemented with either DMSO or DSF (200 nM for A29G; 300 nM for shy1 and coati mutants). […] 02 consumption was recorded with or without CCCP (Carbonyl Cyanide m-Chloro-Phenyl hydrazine; an uncoupling agent that dissipates the proton gradient that is established during the normal activity of the respiratory chain. In the presence of CCCP, the maintenance of an electrical potential across the inner mitochondrial membrane is impossible and respiration becomes maximal. The 02 consumption rate was calculated based on the linear part of 02 consumption.

Compound: CCN(CC)C(=S)SSC(=S)N(CC)CC [DSF, 1-(diethylthiocarbamoyldisulfanyl)-N,N-diethyl-methanethioamide]
- effect on mitochondrial function [1]: affect mitochondrial function
- effect on TNFα-induced cell death (TNFα-induced cell death): inhibits TNFα-induced cell death
- DSF concentration with impact on lactate production (drug toxicity) ([2]; also at 3 μM or 10 μM): ≥ 1 µM
- DSF concentration with no impact on lactate production ([2]; range 100 nM to 10 μM): lower than 1 μM
- effect on complex I activity [3]: increases complex I activity
- solubility [4]: high solubility
- effect on growth of control cybrids (control cybrids (JCP213)): no effect
- IC50 (Δcoa6 cells): 3.1 µM
- effect on yeast respiration (O2 consumption rate) [5]: increases the yeast respiration
